Values belong to the molecule of their own block, whether it stands above or below them.
What was measured:
[1] = target: T1, KlLeu4 (Kluyveromyces lactis, UniProt Q6CIW1); assay: initial velocity kinetics from kinetic global fit, ordered bi-bi; assay type: biochemical; details: kinetic dissociation constant; varied with α-KIV 0.002–0.08 mM; 50 mM phosphate pH 7.5, 140 mM KCl, 4 mM MgCl2, 30 °C, DTNB; read-out: Kia /
T1 construct: gene KLLA0_F23529g; expressed in E. coli BL21(DE3), Ni-NTA purified (tag not described); homodimer
T1 sequence (Q6CIW1 1-609): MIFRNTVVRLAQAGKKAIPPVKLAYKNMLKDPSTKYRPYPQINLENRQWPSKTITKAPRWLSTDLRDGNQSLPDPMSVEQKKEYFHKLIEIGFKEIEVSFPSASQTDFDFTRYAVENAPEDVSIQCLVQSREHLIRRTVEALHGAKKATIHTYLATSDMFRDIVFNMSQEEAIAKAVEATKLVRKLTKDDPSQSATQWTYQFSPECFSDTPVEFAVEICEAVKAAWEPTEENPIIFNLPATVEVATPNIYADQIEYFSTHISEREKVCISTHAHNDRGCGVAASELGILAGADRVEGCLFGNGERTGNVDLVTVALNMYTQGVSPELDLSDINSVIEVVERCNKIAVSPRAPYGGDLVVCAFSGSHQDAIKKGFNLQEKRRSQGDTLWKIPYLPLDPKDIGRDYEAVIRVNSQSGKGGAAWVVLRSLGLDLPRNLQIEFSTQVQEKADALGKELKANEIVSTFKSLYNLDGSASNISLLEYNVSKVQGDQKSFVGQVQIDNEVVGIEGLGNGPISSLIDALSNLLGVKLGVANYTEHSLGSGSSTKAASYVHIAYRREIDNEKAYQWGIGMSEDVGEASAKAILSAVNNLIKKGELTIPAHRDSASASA
Description: initial velocity kinetics from kinetic global fit, ordered bi-bi on KlLeu4

[2] = target: T2, KlLeu4BIS (Kluyveromyces lactis, UniProt Q6CQU3); assay: as above; assay type: biochemical; details: kinetic dissociation constant; varied with α-KIV 0.01–0.25 mM; 50 mM phosphate pH 7.5, 140 mM KCl, 4 mM MgCl2, 30 °C, DTNB; read-out: Kia /
T2 construct: gene KLLA0_D14201g; expressed in E. coli Rosetta 2 (DE3), Ni-NTA purified (tag not described); homodimer
T2 sequence (Q6CQU3 1-583): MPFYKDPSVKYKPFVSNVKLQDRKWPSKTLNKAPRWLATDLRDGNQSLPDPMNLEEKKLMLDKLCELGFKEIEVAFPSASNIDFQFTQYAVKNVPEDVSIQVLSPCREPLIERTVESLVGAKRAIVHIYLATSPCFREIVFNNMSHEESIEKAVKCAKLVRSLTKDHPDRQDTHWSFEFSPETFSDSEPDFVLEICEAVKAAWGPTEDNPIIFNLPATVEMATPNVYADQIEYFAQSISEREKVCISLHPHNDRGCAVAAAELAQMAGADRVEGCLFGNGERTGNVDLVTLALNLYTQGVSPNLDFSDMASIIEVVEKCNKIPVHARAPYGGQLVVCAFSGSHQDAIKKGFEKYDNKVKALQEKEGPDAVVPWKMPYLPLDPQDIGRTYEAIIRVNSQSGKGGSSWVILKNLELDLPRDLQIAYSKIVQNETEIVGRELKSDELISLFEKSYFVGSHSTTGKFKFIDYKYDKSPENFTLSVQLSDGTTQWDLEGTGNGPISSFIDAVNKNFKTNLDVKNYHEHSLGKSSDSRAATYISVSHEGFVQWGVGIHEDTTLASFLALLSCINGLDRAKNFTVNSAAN
Description: initial velocity kinetics from kinetic global fit, ordered bi-bi on KlLeu4BIS

[3] = target: T1, KlLeu4; assay: initial velocity inhibition kinetics, global fit; assay type: biochemical; details: read-out: Kis /
Description: initial velocity inhibition kinetics, global fit on KlLeu4

[4] = target: T3, KlLeu4 (Kluyveromyces lactis, UniProt Q6CIW1); assay: α-IPMS activity in whole cell extract, DTNB assay […] nm; assay type: biochemical; details: 0.25 mM acetyl-CoA, 10 mM α-KIV, 50 mM phosphate pH 7.5, 140 mM KCl, 4 mM MgCl2, 30 °C
T3 construct: gene KLLA0_F23529g; native untagged enzyme in whole cell extract of the Klleu4bisΔ single mutant; homodimer

[5] = target: T2, KlLeu4BIS; assay: initial velocity inhibition kinetics, global fit; assay type: biochemical; details: read-out: Kis /
Description: initial velocity inhibition kinetics, global fit on KlLeu4BIS

[6] = target: T4, KlLeu4BIS (Kluyveromyces lactis, UniProt Q6CQU3); assay: α-IPMS activity in whole cell extract, DTNB assay […] nm; assay type: biochemical; details: 0.25 mM acetyl-CoA, 10 mM α-KIV, 50 mM phosphate pH 7.5, 140 mM KCl, 4 mM MgCl2, 30 °C
T4 construct: gene KLLA0_D14201g; native untagged enzyme in whole cell extract of the Klleu4Δ single mutant; homodimer

[7] = substrate: CC(=O)SCCNC(=O)CCNC(=O)[C@H](O)C(C)(C)COP(=O)(O)OP(=O)(O)OC[C@H]1O[C@@H](n2cnc3c(N)ncnc32)[C@H](O)[C@@H]1OP(=O)(O)O; assay: initial velocity kinetics, global fit, ordered bi-bi; assay type: biochemical, Kluyveromyces lactis; details: α-KIV co-varied 0.01–0.25 mM, 50 mM phosphate pH 7.5, 140 mM KCl, 4 mM MgCl2, 30 °C, DTNB
Description: (§1) initial velocity kinetics, global fit, ordered bi-bi on KlLeu4BIS

[8] = substrate: CC(C)C(=O)C(=O)O; assay: as above; assay type: biochemical, Kluyveromyces lactis; details: acetyl-CoA co-varied 0.008–0.1 mM, 50 mM phosphate pH 7.5, 140 mM KCl, 4 mM MgCl2, 30 °C, DTNB
Description: as §1

[9] = substrate: CC(=O)SCCNC(=O)CCNC(=O)[C@H](O)C(C)(C)COP(=O)(O)OP(=O)(O)OC[C@H]1O[C@@H](n2cnc3c(N)ncnc32)[C@H](O)[C@@H]1OP(=O)(O)O; assay: as above; assay type: biochemical, Kluyveromyces lactis; details: α-KIV co-varied 0.002–0.08 mM, 50 mM phosphate pH 7.5, 140 mM KCl, 4 mM MgCl2, 30 °C, DTNB
Description: (§2) initial velocity kinetics, global fit, ordered bi-bi on KlLeu4

[10] = substrate: CC(C)C(=O)C(=O)O; assay: as above; assay type: biochemical, Kluyveromyces lactis; details: acetyl-CoA co-varied 0.002–0.1 mM, 50 mM phosphate pH 7.5, 140 mM KCl, 4 mM MgCl2, 30 °C, DTNB
Description: as §2

B1: KlLeu4BIS (Kluyveromyces lactis NRRL Y-1140) (protein)
chain: MPFYKDPSVKYKPFVSNVKLQDRKWPSKTLNKAPRWLATDLRDGNQSLPDPMNLEEKKLMLDKLCELGFKEIEVAFPSASNIDFQFTQYAVKNVPEDVSIQVLSPCREPLIERTVESLVGAKRAIVHIYLATSPCFREIVFNNMSHEESIEKAVKCAKLVRSLTKDHPDRQDTHWSFEFSPETFSDSEPDFVLEICEAVKAAWGPTEDNPIIFNLPATVEMATPNVYADQIEYFAQSISEREKVCISLHPHNDRGCAVAAAELAQMAGADRVEGCLFGNGERTGNVDLVTLALNLYTQGVSPNLDFSDMASIIEVVEKCNKIPVHARAPYGGQLVVCAFSGSHQDAIKKGFEKYDNKVKALQEKEGPDAVVPWKMPYLPLDPQDIGRTYEAIIRVNSQSGKGGSSWVILKNLELDLPRDLQIAYSKIVQNETEIVGRELKSDELISLFEKSYFVGSHSTTGKFKFIDYKYDKSPENFTLSVQLSDGTTQWDLEGTGNGPISSFIDAVNKNFKTNLDVKNYHEHSLGKSSDSRAATYISVSHEGFVQWGVGIHEDTTLASFLALLSCINGLDRAKNFTVNSAAN
notes: expressed in E. coli Rosetta 2 (DE3), Ni-NTA purified (tag not described); homodimer
- Km [7]: 19 ± 5 µM
- Km [8]: 55 ± 13 µM

B2: KlLeu4 (Kluyveromyces lactis NRRL Y-1140) (protein)
chain: MIFRNTVVRLAQAGKKAIPPVKLAYKNMLKDPSTKYRPYPQINLENRQWPSKTITKAPRWLSTDLRDGNQSLPDPMSVEQKKEYFHKLIEIGFKEIEVSFPSASQTDFDFTRYAVENAPEDVSIQCLVQSREHLIRRTVEALHGAKKATIHTYLATSDMFRDIVFNMSQEEAIAKAVEATKLVRKLTKDDPSQSATQWTYQFSPECFSDTPVEFAVEICEAVKAAWEPTEENPIIFNLPATVEVATPNIYADQIEYFSTHISEREKVCISTHAHNDRGCGVAASELGILAGADRVEGCLFGNGERTGNVDLVTVALNMYTQGVSPELDLSDINSVIEVVERCNKIAVSPRAPYGGDLVVCAFSGSHQDAIKKGFNLQEKRRSQGDTLWKIPYLPLDPKDIGRDYEAVIRVNSQSGKGGAAWVVLRSLGLDLPRNLQIEFSTQVQEKADALGKELKANEIVSTFKSLYNLDGSASNISLLEYNVSKVQGDQKSFVGQVQIDNEVVGIEGLGNGPISSLIDALSNLLGVKLGVANYTEHSLGSGSSTKAASYVHIAYRREIDNEKAYQWGIGMSEDVGEASAKAILSAVNNLIKKGELTIPAHRDSASASA
notes: expressed in E. coli BL21(DE3), Ni-NTA purified (tag not described); homodimer
- Km [9]: 26 ± 3 µM
- Km [10]: 25 ± 3 µM

The remaining lines, values ahead:

- Kd [1]: 17 ± 5 µM
- Kd [2]: 12 ± 7 µM
Molecule: CC(=O)SCCNC(=O)CCNC(=O)[C@H](O)C(C)(C)COP(=O)(O)OP(=O)(O)OC[C@H]1O[C@@H](n2cnc3c(N)ncnc32)[C@H](O)[C@@H]1OP(=O)(O)O [acetyl coenzyme A]

- Ki [3]: 34 ± 11 µM
- IC50 [4]: 20 µM
- Ki [5]: 31 ± 8 µM
- IC50 [6]: 37 µM
Molecule: CC(C)C[C@H](N)C(=O)O [leucine]
